Test results from PMC12348863 (Molecules, 2025).

Legend:
[1] = Water solubility analysis (dissolved CBD in deionised water, HPLC); type: physicochemical
Protocol: The prepared CBD-GA complexes, in various molar ratios, were tested for water solubility. In a typical experiment, between 1.0 and 1.5 mg of the complex was accurately weighed and dissolved in 1 mL of deionised water (Merck Millipore, Burlington, MA, USA) under vigorous mixing. If necessary, an ultrasonic bath was employed to aid dissolution.
Following mixing, the solution was centrifuged for 3 min at 3000× g. The resulting supernatant was transferred to vials for HPLC analysis. The concentration of dissolved CBD was quantified using a chromatographic method with an Agilent 1260 Infinity HPLC system (Waldbronn, Germany). Further details are provided in Appendix A.4.
The concentration of CBD in dissolution and permeation test samples was assayed using an Agilent 1260 Infinity system with UV detection. The column in use was Luna C18(2) (Phenomenex, Torrance, CA, USA), with dimensions 150 mm × 3 mm, 3 µm particle size. The column flow rate was 0.8 mL/min at 37 °C. The elution was isocratic, with the mobile phase consisting of acetonitrile–water at a ratio of 31:9 (v/v), with 10 mM ammonium formate and 0.1% (v/v) formic acid added (without pH adjustment). The injection volume was 5 µL, and the run time was 5 min. The UV detector wavelength was set at 275 nm.

[2] = unformulated CBD; cited from earlier work
[3] = In vitro permeation (PAMPA) test; type: in vitro ADME; conditions: 159 µM CBD
Protocol: In vitro permeation (PAMPA) tests were performed to evaluate differences in permeation parameters between regular (lipophilic) CBD and the water-soluble CBD complex. Atenolol and metoprolol were included as control substances. The initial concentration of CBD in the donor medium was 159 µM, while the concentrations of atenolol and metoprolol were 500 µM each. The experiments were conducted using a 96-well PAMPA plate with PVDF filter membranes (Sigma-Aldrich). The donor medium consisted of 50 mM phosphate buffer (pH 6.5, Sigma-Aldrich) containing 5% (v/v) DMSO, with a volume of 300 µL per well. The acceptor medium used was Pion’s “acceptor sink buffer” (Billerica, MA, USA), added in a volume of 200 µL per well. The artificial membrane solution consisted of 1% (w/v) cholesterol (Merck, Darmstadt, Germany) dissolved in a 3:1 (v/v) mixture of dodecane and n-hexane. Prior to the experiment, 4 µL of this membrane solution was applied to each filter membrane. Each test compound was assessed in 12 replicates. The total duration of the experiment was 260 min. […] At the end of this experiment, both donor and acceptor solutions were analysed by HPLC. CBD concentrations were determined using HPLC with UV detection, according to the method described by Križman [39] […] Atenolol and metoprolol concentrations were analysed by HPLC with FL detection, following the protocol of Yilmaz et al. [40] […]

C=C(C)[C@@H]1CCC(C)=C[C@H]1c1c(O)cc(CCCCC)cc1O [pure CBD, Cannabidiol]
solubility ([1]; deionised water, supernatant after centrifugation, HPLC, read-out: CBD Concentration (water solubility)): < 0.06 µg/mL | aqueous solubility, times lower than that of the water-soluble CBD complex ([1]; unformulated CBD versus water-soluble CBD complex): more than 400 times | aqueous solubility [2]: less than 60 ng/mL | Papp at 260 min, 159 µM ([3]; donor 50 mM phosphate buffer pH 6.5 with 5% DMSO, 12 replicates, read-out: average permeability): 1.98 ×10⁻⁶ cm/s | mass retention in the lipophilic membrane ([3]; donor pH 6.5 with 5% DMSO, 260 min, average): 84%
